Experimental data published in patent publication US20140100222A1, “Beta2-ADRENOCEPTOR AGONIST FOR THE TREATMENT OF COUGH” (BOEHRINGER INGELHEIM INTERNATIONAL GMBH, priority 2012, published 2014).
Marks after values point to notes of the source that are not given here.

What was measured:
[1] = test system: acetylcholine induced bronchoconstriction in guinea pigs; assay: Bronchoprotection: acetylcholine induced bronchospasm in anaesthetised guinea pigs (Konzett-Rössler); format: in vivo, guinea pig; settings: for Bronchoconstriction (ml overflow): 2 h before acetylcholine 14 μg/kg i.v., mean; for bronchoprotective FED: first dose without side-effect displaying 80 to 100% efficacy
Protocol: Animal-Male and female Dunkin-Harley guinea pigs were obtained from the Experimental Animal Breeding Centre of Harlan Winkelmann (Germany). After fasting overnight, but with free access to drinking water, animals with body weight of 400-500 g are used. Anesthesia and preparation-The anesthesia was induced by intraperitoneal injection of 50 mg/kg pentobarbital. Anesthesia was prolonged by intravenous infusion of pentobarbital (15 mg/kg/h) via the jugular vein. A tracheal cannula was introduced after tracheotomy for artificial ventilation. The internal jugular vein was cannulated for acetylcholine injection. Instrumentation-Bronchospasm was recorded with a modified version of the method of Konzett-Röβler described by […] et al, 1997. […] Lung resistance was measured as ml of overflow and was recorded, amplified and saved under Notocord files (Notocord-hem, Notocord, France). Blood pressure and heart rate were monitored from a carotid artery in order to check the anesthesia and the variability of the preparation. Experimental protocol-2 hours before acetylcholine challenge, guinea pigs were given the test compound or its vehicle intra-tracheally under a slight isoflurane anesthesia. 30 minutes before acetylcholine challenge, lung resistance and blood pressure were measured under anesthesia. […] Data analysis-Data from the treatment groups were compared with the vehicle group. Data are expressed as mean ±SD of ml of overflow. […] Mean values were statistically analyzed by one-way analysis of variance (ANOVA) followed by the Dunnett's Multiple comparisons Test to evaluate significant differences between groups with p<0.05 being considered significant.

[2] = test system: citric acid induced cough in OVA sensitised guinea pigs; assay: Anti-tussive activity: citric acid induced cough in OVA sensitised guinea pigs (whole body plethysmograph); format: in vivo, guinea pig; settings: for Number of coughs: 2 h before 15 min citric acid challenge, mean; for Anti-tussive effect (%): summary
Protocol: Animals—Male albino Dunkin-Hartley guinea pigs (350-550 g; Charles River WIGA GmbH, Sulzfeld, Germany) were used. The animals were housed in groups of 6 in solid floor cages and allowed free access to water and standard food. The guinea pigs were kept in rooms maintained at a constant temperature (22° C.±2° C.) and humidity (60%±15%), with a 12 h light cycle. The experiments were approved by the ethical committee Regierungspräsidium Tübingen, Germany.
OVA asthma model—On days 1 and 2, the guinea pigs were immunised by subcutaneous injection of 0.5 ml per animal of a solution of ovalbumin (OVA) (40 μg/ml) and aluminium hydroxide [Al (OH)3]. On day 14, these sensitised guinea pigs were challenged with OVA by exposure to an OVA aerosol (1.25 mg/ml) for 5 minutes, using a Dräger Inhalette® (Dräger Medical AG & Co. KgaA, Lübeck, Germany). 30 minutes prior to the challenge, pyrilamine maleate (2 mg/kg i.p.) was administered to protect the animals against bronchospasm. On day 15, the citric acid challenge was given to induce cough. 2 hours before the challenge, the test compound or vehicle (saline) was delivered by intratracheal (i.t.) administration (0.5 ml/kg) under anaesthesia with isoflurane (Forene®, Abbott GmbH and CO. KG, Wiesbaden, Germany).
Cough recording—Two hours after i.t. application, the citric acid challenge was performed. A whole body plethysmograph manufactured for guinea pigs (Buxco Research Systems, Wilmington, N.C., USA) was used for the experiments. Conscious animals were individually placed, unrestrained, into a whole body plethysmograph chamber. A solution of citric acid (0.4 M) was nebulised using the Aerosol Delivery System (Buxco) and administered to the animals at a rate of nebulisation of 0.18 ml/min for 15 min. During the challenge, airflow in the chamber was recorded by the Buxco system and analysed for the transient increase in airflow produced by cough, in which rapid inspiration is followed by rapid expiration. The system was able to distinguish coughs from other expiratory responses, and the number of coughs was counted.
Data analysis—Data from the treatment groups were compared with the vehicle group. Data are expressed as mean ±SEM of coughs produced by guinea pigs within each group during a 15 minutes citric acid aerosol exposure. Mean values were statistically analyzed by one-way analysis of variance (ANOVA) followed by the Dunnett's Multiple comparisons Test to evaluate significant differences between groups with p<0.05 being considered significant.

heart rate = assay: Side-effects: increase in heart rate after drug instillation
Protocol: In the following the heart rate is expressed as a percentage of the pre-value (heart beats per minute) preceding the drug administration. The increase in heart rate expressed in percent corresponds to the difference of heart rate between the vehicle group and the treated group recorded 20 minutes after drug instillation.

cough reflex = settings: inhaled therapy in asthma, COPD or IPF; therapeutic doses; cited from earlier work
[3] = 1 μg/kg i.t., inhibition of acetylcholine bronchoconstriction
[4] = Dunkin-Hartley, guinea pig, in vivo, 20 min

COc1ccc(CC(C)(C)NC[C@H](O)c2cc(O)cc3c2OCC(=O)N3)cc1 [Olodaterol]
Bronchoconstriction (ml overflow) ([1]; 0.01 μg/kg i.t.): 25 mL
Bronchoprotection (%) ([1]; 0.01 μg/kg i.t., inhibition of acetylcholine bronchoconstriction): 32%
Bronchoconstriction (ml overflow) ([1]; 0.03 μg/kg i.t.): 14 mL
Bronchoprotection (%) ([1]; 0.03 μg/kg i.t., inhibition of acetylcholine bronchoconstriction): 62 * %
Bronchoconstriction (ml overflow) ([1]; 0.1 μg/kg i.t.): 8 mL
Bronchoprotection (%) ([1]; 0.1 μg/kg i.t., inhibition of acetylcholine bronchoconstriction): 78 * %
Bronchoconstriction (ml overflow) ([1]; 0.3 μg/kg i.t.): 4 mL
Bronchoprotection (%) ([1]; 0.3 μg/kg i.t., inhibition of acetylcholine bronchoconstriction): 89 * %
Bronchoconstriction (ml overflow) ([1]; 1 μg/kg i.t.): 2 mL
Bronchoprotection (%) [1, 3]: 95 * %
bronchoprotective FED [1]: 0.3 µg/kg
minimum effective dose for bronchoprotection ([1]; i.t.): 0.01 µg/kg
Bronchoprotection (%) ([1]; summary, 0.01 μg/kg): 32%
Bronchoprotection (%) ([1]; summary, 0.03 μg/kg): 62%
Bronchoprotection (%) ([1]; summary, 0.1 μg/kg): 78%
Bronchoprotection (%) ([1]; summary, 0.3 μg/kg): 89%
Bronchoprotection (%) ([1]; summary, 1 μg/kg): 95%
Inhibition of cough (%) vs vehicle ([2]; 0.01 μg/kg i.t.): 33%
Number of coughs ([2]; 0.01 μg/kg i.t.): 16
Inhibition of cough (%) vs vehicle ([2]; 0.03 μg/kg i.t.): 58 * %
Number of coughs ([2]; 0.03 μg/kg i.t.): 10
Inhibition of cough (%) vs vehicle ([2]; 0.1 μg/kg i.t.): 79 * %
Number of coughs ([2]; 0.1 μg/kg i.t.): 5
Inhibition of cough (%) vs vehicle ([2]; 0.3 μg/kg i.t.): 79 * %
Number of coughs ([2]; 0.3 μg/kg i.t.): 5
Inhibition of cough (%) vs vehicle ([2]; 1 μg/kg i.t.): 75 * %
Number of coughs ([2]; 1 μg/kg i.t.): 6
Inhibition of cough (%) vs vehicle ([2]; 3 μg/kg i.t.): 79 * %
Number of coughs ([2]; 3 μg/kg i.t.): 5
antitussive Fully Effective Dose (FED) ([2]; first dose without side-effect displaying 70 to 80% efficacy): 0.1 µg/kg
Anti-tussive effect (%) ([2]; 0.01 μg/kg): 33%
Anti-tussive effect (%) ([2]; 0.03 μg/kg): 58%
Anti-tussive effect (%) ([2]; 0.1 μg/kg): 79%
Anti-tussive effect (%) ([2]; 0.3 μg/kg): 79%
Anti-tussive effect (%) ([2]; 1 μg/kg): 75%
Dose inducing side-effect (increase in heart rate) (heart rate; [4]): 30 µg/kg
ratio dose inducing side-effect/antitussive FED (heart rate; [4]): 300
ratio dose inducing side-effect/bronchoprotective FED (heart rate; [4]): 100
addiction or arrhythmia (heart rate; in vivo): no addiction or arrhythmia

CCc1cc2c(cc1CC)CC(NC[C@H](O)c1ccc(O)c3[nH]c(=O)ccc13)C2 [Indacaterol]
Bronchoconstriction (ml overflow) ([1]; 1 μg/kg i.t.): 34 mL
Bronchoprotection (%) [1, 3]: 8%
Bronchoconstriction (ml overflow) ([1]; 3 μg/kg i.t.): 18 mL
Bronchoprotection (%) ([1]; 3 μg/kg i.t., inhibition of acetylcholine bronchoconstriction): 51 * %
Bronchoconstriction (ml overflow) ([1]; 10 μg/kg i.t.): 6 mL
Bronchoprotection (%) ([1]; 10 μg/kg i.t., inhibition of acetylcholine bronchoconstriction): 84 * %
Bronchoconstriction (ml overflow) ([1]; 30 μg/kg i.t.): 5 mL
Bronchoprotection (%) ([1]; 30 μg/kg i.t., inhibition of acetylcholine bronchoconstriction): 86 * %
ED50 ([1]; Cavia porcellus, inhaled or nasal, i.t.): 3 µg/kg
bronchoprotective FED [1]: 10 µg/kg
Bronchoprotection (%) ([1]; summary, 1 μg/kg): 8%
Bronchoprotection (%) ([1]; summary, 3 μg/kg): 51%
Bronchoprotection (%) ([1]; summary, 10 μg/kg): 84%
Bronchoprotection (%) ([1]; summary, 30 μg/kg): 86%
Inhibition of cough (%) vs vehicle ([2]; 3 μg/kg i.t.): 0%
Number of coughs ([2]; 3 μg/kg i.t.): 26
Inhibition of cough (%) vs vehicle ([2]; 10 μg/kg i.t.): 0%
Number of coughs ([2]; 10 μg/kg i.t.): 32
Inhibition of cough (%) vs vehicle ([2]; 30 μg/kg i.t.): 0%
Number of coughs ([2]; 30 μg/kg i.t.): 38
Anti-tussive effect (%) ([2]; 3 μg/kg): 0%
Anti-tussive effect (%) ([2]; 10 μg/kg): 0%
Anti-tussive effect (%) ([2]; 30 μg/kg): 0%
Dose inducing side-effect (increase in heart rate) (heart rate; [4]): 100 µg/kg
ratio dose inducing side-effect/bronchoprotective FED (heart rate; guinea pig, in vivo, 20 min): 10
safety margin, times less than for Olodaterol (heart rate; guinea pig, in vivo, 20 min): 10

OCc1cc(C(O)CNCCCCCCOCCCCc2ccccc2)ccc1O (stereo not drawn) [Salmeterol]
effect on cough reflex (cough reflex): display anti-tussive effect

COc1ccc2c3c1O[C@H]1[C@@H](O)C=C[C@H]4[C@@H](C2)N(C)CC[C@@]341 [Codeine]
Inhibition of cough (%) vs vehicle ([2]; 1 mg/kg i.t.): 17%
Number of coughs ([2]; 1 mg/kg i.t.): 20
Inhibition of cough (%) vs vehicle ([2]; 3 mg/kg i.t.): 42 * %
Number of coughs ([2]; 3 mg/kg i.t.): 14
Inhibition of cough (%) vs vehicle ([2]; 10 mg/kg i.t.): 58 * %
Number of coughs ([2]; 10 mg/kg i.t.): 10
Inhibition of cough (%) vs vehicle ([2]; 30 mg/kg i.t.): 71 * %
Number of coughs ([2]; 30 mg/kg i.t.): 7

COc1ccc(CC(C)NCC(O)c2ccc(O)c(NC=O)c2)cc1 (stereo not drawn) [Formoterol]
Inhibition of cough (%) vs vehicle ([2]; 1 μg/kg i.t.): 0%
Number of coughs ([2]; 1 μg/kg i.t.): 26
Inhibition of cough (%) vs vehicle ([2]; 3 μg/kg i.t.): 71 * %
Number of coughs ([2]; 3 μg/kg i.t.): 7
Inhibition of cough (%) vs vehicle ([2]; 10 μg/kg i.t.): 58 * %
Number of coughs ([2]; 10 μg/kg i.t.): 10
Anti-tussive effect (%) ([2]; 3 μg/kg): 71%
Anti-tussive effect (%) ([2]; 10 μg/kg): 58%
increase in heart rate (heart rate; 10 μg/kg, 20 min after administration): 21%
Dose inducing side-effect (increase in heart rate) (heart rate; first dose increasing heart rate at least 10% vs vehicle, 20 min after administration): 10 µg/kg
